Laboratory results as given in patent US10092570B2 (Incyte Corporation, priority 2011, dated 2018).
pIC50: −log10 of the molar value.

target: PI3Kδ (p110δ/p85α) (Homo sapiens (Human), UniProt O00329); assay: Example A3: PI3Kδ scintillation proximity assay; type: biochemical; settings: scintillation proximity assay, 20 μM ATP, 4 nM PI3Kδ; read-out: PI3Kδ SPA IC50
Procedure: [γ-^33P]ATP (10 mCi/mL) was purchased from Perkin-Elmer (Waltham, Mass.). […] PI3Kδ (p110δ/p85α) was purchased from Millipore (Bedford, Mass.). ATP, MgCl2, DTT, EDTA, MOPS and CHAPS were purchased from Sigma-Aldrich (St. Louis, Mo.). Wheat Germ Agglutinin (WGA) YSi SPA Scintillation Beads was purchased from GE healthcare life sciences (Piscataway, N.J.).
The kinase reaction was conducted in polystyrene 384-well matrix white plate from Thermo Fisher Scientific in a final volume of 25 μL. Inhibitors were first diluted serially in DMSO and added to the plate wells before the addition of other reaction components. The final concentration of DMSO in the assay was 0.5%. The PI3K assays were carried out at room temperature in 20 mM MOPS, pH 6.7, 10 mM MgCl2, 5 mM DTT and CHAPS 0.03%. Reactions were initiated by the addition of ATP, the final reaction mixture consisted of 20 μM PIP2, 20 μM ATP, 0.2 μCi [γ-^33P] ATP, 4 nM PI3Kδ. […] 25 mM EDTA, 400 μM ATP. The final concentration of SPA beads was 1.0 mg/mL. After the plate sealing, plates were shaken overnight at room temperature and centrifuged at 1800 rpm for 10 minutes, the radioactivity of the product was determined by scintillation counting on Topcount (Perkin-Elmer). IC50 determination was performed by fitting the curve of percent control activity versus the log of the inhibitor concentration using the GraphPad Prism 3.0 software.

PI3Kδ (p110δ/p85α), sequence (O00329 whole entry): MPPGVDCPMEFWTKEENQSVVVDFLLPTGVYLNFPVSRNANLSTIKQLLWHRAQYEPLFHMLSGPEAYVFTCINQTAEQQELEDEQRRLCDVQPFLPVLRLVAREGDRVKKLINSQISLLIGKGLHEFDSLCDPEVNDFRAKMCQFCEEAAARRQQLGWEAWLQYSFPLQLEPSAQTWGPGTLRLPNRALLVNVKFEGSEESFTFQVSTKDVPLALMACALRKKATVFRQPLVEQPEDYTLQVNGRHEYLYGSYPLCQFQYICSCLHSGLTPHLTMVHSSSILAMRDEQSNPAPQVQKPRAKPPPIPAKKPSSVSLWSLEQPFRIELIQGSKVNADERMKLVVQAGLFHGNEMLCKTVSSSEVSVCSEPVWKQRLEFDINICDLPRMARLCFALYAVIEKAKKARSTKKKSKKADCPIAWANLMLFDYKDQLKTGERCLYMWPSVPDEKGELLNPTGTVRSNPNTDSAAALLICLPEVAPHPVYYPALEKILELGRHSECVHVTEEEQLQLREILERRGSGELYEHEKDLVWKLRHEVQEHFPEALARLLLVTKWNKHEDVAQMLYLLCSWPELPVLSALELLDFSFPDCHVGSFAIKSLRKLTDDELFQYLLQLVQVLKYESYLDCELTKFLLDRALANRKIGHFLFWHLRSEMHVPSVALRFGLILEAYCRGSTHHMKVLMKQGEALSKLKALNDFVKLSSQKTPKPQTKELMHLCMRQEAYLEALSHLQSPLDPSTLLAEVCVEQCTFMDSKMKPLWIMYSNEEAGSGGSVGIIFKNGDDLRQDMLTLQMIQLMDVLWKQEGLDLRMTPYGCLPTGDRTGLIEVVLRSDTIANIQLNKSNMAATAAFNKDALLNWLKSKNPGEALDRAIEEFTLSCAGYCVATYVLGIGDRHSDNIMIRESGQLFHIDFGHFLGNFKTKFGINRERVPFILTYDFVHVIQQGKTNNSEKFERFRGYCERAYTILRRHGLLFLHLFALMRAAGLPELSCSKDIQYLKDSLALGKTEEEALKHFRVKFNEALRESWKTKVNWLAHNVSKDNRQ
PI3Kδ (p110δ/p85α), sequence (P27986 whole entry partner): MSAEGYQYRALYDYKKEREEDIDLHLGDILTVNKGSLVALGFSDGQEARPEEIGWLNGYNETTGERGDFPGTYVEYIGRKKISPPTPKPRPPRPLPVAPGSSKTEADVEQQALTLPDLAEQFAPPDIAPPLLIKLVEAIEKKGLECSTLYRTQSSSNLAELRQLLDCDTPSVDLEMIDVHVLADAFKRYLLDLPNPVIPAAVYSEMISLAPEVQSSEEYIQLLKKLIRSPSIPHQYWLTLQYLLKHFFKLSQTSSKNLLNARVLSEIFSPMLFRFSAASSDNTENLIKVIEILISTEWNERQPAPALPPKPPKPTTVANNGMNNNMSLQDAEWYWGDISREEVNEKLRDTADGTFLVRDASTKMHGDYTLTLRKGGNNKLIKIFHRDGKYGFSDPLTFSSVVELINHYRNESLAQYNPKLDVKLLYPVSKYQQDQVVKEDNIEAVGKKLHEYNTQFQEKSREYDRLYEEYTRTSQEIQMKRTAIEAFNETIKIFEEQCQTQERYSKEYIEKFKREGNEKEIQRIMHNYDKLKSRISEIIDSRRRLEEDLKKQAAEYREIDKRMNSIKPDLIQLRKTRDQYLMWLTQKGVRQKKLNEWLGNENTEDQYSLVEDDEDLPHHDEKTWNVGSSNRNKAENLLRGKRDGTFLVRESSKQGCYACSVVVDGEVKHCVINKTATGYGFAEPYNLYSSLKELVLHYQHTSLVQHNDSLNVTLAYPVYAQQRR

pIC50 | Compound
> 8.00 | CCNC(=O)c1c(C)c(Cl)cc(C(C)n2nc(-c3cnc4[nH]ccc4c3)c3c(N)ncnc32)c1OCC (racemic) [Example 91, 3-{1-[4-Amino-3-(1H-pyrrolo[2,3-b]pyridin-5-yl)-1H-pyrazolo[3,4-d]pyrimidin-1-yl]ethyl}-5-chloro-2-ethoxy-N-ethyl-6-methylbenzamide]
> 8.00 | CCNC(=O)c1c(C)c(Cl)cc(C(C)n2nc(-c3ccc4cn[nH]c4c3)c3c(N)ncnc32)c1OCC (racemic) [Example 92, 3-{1-[4-Amino-3-(1H-indazol-6-yl)-1H-pyrazolo[3,4-d]pyrimidin-1-yl]ethyl}-5-chloro-2-ethoxy-N-ethyl-6-methylbenzamide]
> 8.00 | CCNC(=O)c1c(C)c(Cl)cc(C(C)n2nc(-c3ccc4[nH]ccc4c3)c3c(N)ncnc32)c1OCC (racemic) [Example 93, 3-{1-[4-Amino-3-(1H-indol-5-yl)-1H-pyrazolo[3,4-d]pyrimidin-1-yl]ethyl}-5-chloro-2-ethoxy-N-ethyl-6-methylbenzamide]
> 8.00 | COc1c(C(C)n2nc(C(F)F)c3c(N)ncnc32)cc(C#N)c(C)c1C1CN(C(C)C)C1 (racemic) [Example 128, 5-{1-[4-amino-3-(difluoromethyl)-1H-pyrazolo[3,4-d]pyrimidin-1-yl]ethyl}-3-(1-isopropylazetidin-3-yl)-4-methoxy-2-methylbenzonitrile]
> 8.00 | COc1c(C(C)n2nc(C(F)F)c3c(N)ncnc32)cc(C#N)c(C)c1C1CN(CC(F)(F)F)C1 (racemic) [Example 129, 5-{1-[4-Amino-3-(difluoromethyl)-1H-pyrazolo[3,4-d]pyrimidin-1-yl]ethyl}-4-methoxy-2-methyl-3-[1-(2,2,2-trifluoroethyl)azetidin-3-yl]benzonitrile]
> 8.00 | COc1c(C(C)n2nc(C(F)F)c3c(N)ncnc32)cc(C#N)c(C)c1C1CN(CCO)C1 (racemic) [Example 130, 5-{1-[4-Amino-3-(difluoromethyl)-1H-pyrazolo[3,4-d]pyrimidin-1-yl]ethyl}-3-[1-(2-hydroxyethyl)azetidin-3-yl]-4-methoxy-2-methylbenzonitrile]
> 8.00 | COc1c(C(C)n2nc(C(F)F)c3c(N)ncnc32)cc(C#N)c(C)c1C1CN(CC(C)(C)O)C1 (racemic) [Example 133, 5-{1-[4-Amino-3-(difluoromethyl)-1H-pyrazolo[3,4-d]pyrimidin-1-yl]ethyl}-3-[1-(2-hydroxy-2-methylpropyl)azetidin-3-yl]-4-methoxy-2-methylbenzonitrile]
> 8.00 | COc1c(C(C)n2nc(C(F)F)c3c(N)ncnc32)cc(C#N)c(C)c1C1CN(C(C)=O)C1 (racemic) [Example 138, 3-(1-Acetylazetidin-3-yl)-5-{1-[4-amino-3-(difluoromethyl)-1H-pyrazolo[3,4-d]pyrimidin-1-yl]ethyl}-4-methoxy-2-methylbenzonitrile]
> 8.00 | CCOc1c(C(C)n2nc(C)c3c(N)ncnc32)cc(Cl)c(F)c1C1CN(CC(F)(F)F)C1 (racemic) [Example 141, 1-(1-{5-Chloro-2-ethoxy-4-fluoro-3-[1-(2,2,2-trifluoroethyl)azetidin-3-yl]phenyl}ethyl)-3-methyl-1H-pyrazolo[3,4-d]pyrimidin-4-amine]
> 8.00 | COc1c(C(C)n2nc(C)c3c(N)ncnc32)cc(Cl)c(C)c1C1CCN(CC(C)(C)O)CC1 (racemic) [Example 164, 1-(4-{3-[1-(4-Amino-3-methyl-1H-pyrazolo[3,4-d]pyrimidin-1-yl)ethyl]-5-chloro-2-methoxy-6-methylphenyl}piperidin-1-yl)-2-methylpropan-2-ol]
> 8.00 | CCOc1c(C(C)n2nc(CC#N)c3c(N)ncnc32)cc(Cl)c(C)c1-c1ccc(C(=O)N(C)C)nc1 (racemic) [Example 165, 5-(3-{1-[4-Amino-3-(cyanomethyl)-1H-pyrazolo[3,4-d]pyrimidin-1-yl]ethyl}-5-chloro-2-ethoxy-6-methylphenyl)-N,N-dimethylpyridine-2-carboxamide]
> 8.00 | CCOc1c(C(C)n2nc(C)c3c(N)ncnc32)cc(Cl)c(C#N)c1-c1ccc(C(C)(C)O)nc1 (racemic) [Example 316, 4-[1-(4-amino-3-methyl-1H-pyrazolo[3,4-d]pyrimidin-1-yl)ethyl]-6-chloro-3-ethoxy-2-[6-(1-hydroxy-1-methylethyl)pyridin-3-yl]benzonitrile]
> 8.00 | CCOc1c(C(C)n2nc(C)c3c(N)ncnc32)cc(Cl)c(C#N)c1N1CCCC1 (racemic) [Example 318, 4-[1-(4-amino-3-methyl-1H-pyrazolo[3,4-d]pyrimidin-1-yl)ethyl]-6-chloro-3-ethoxy-2-pyrrolidin-1-ylbenzonitrile]
> 8.00 | CCOc1c(C(C)n2nc(C)c3c(N)ncnc32)cc(C)c(C#N)c1C1CN(C(C)C)C1 (racemic) [Example 320, 4-[1-(4-amino-3-methyl-1H-pyrazolo[3,4-d]pyrimidin-1-yl)ethyl]-3-ethoxy-2-(1-isopropylazetidin-3-yl)-6-methylbenzonitrile]
> 8.00 | CCOc1c(C(C)n2nc(C)c3c(N)ncnc32)cc(Cl)c(C#N)c1-c1cncnc1 (racemic) [Example 329, 4-[1-(4-amino-3-methyl-1H-pyrazolo[3,4-d]pyrimidin-1-yl)ethyl]-6-chloro-3-ethoxy-2-pyrimidin-5-ylbenzonitrile]
> 8.00 | CCOc1c(C(C)n2nc(C)c3c(N)ncnc32)cc(Cl)c(C#N)c1-c1ccc(-c2cnn(C)n2)nc1 (racemic) [Example 337, 4-[1-(4-amino-3-methyl-1H-pyrazolo[3,4-d]pyrimidin-1-yl)ethyl]-6-chloro-3-ethoxy-2-[6-(2-methyl-2H-1,2,3-triazol-4-yl)pyridin-3-yl]benzonitrile]
> 8.00 | CCOc1c(C(C)n2nc(C)c3c(N)ncnc32)cc(Cl)c(C#N)c1-c1cncc(-c2ncco2)c1 (racemic) [Example 339, 4-[1-(4-amino-3-methyl-1H-pyrazolo[3,4-d]pyrimidin-1-yl)ethyl]-6-chloro-3-ethoxy-2-[5-(1,3-oxazol-2-yl)pyridin-3-yl]benzonitrile]
> 8.00 | CCOc1c(C(C)n2nc(C)c3c(N)ncnc32)cc(Cl)c(C#N)c1N1CC(C#N)C1 (racemic) [Example 342, 1-{3-[1-(4-amino-3-methyl-1H-pyrazolo[3,4-d]pyrimidin-1-yl)ethyl]-5-chloro-6-cyano-2-ethoxyphenyl}azetidine-3-carbonitrile]

Compound | pIC50
COc1c(C(C)n2nc(C(F)F)c3c(N)ncnc32)cc(C#N)c(C)c1C1CN(CC(F)F)C1 (racemic) [Example 136, 5-{1-[4-Amino-3-(difluoromethyl)-1H-pyrazolo[3,4-d]pyrimidin-1-yl]ethyl}-3-[1-(2,2-difluoroethyl)azetidin-3-yl]-4-methoxy-2-methylbenzonitrile] | > 8.00
CCOc1c(C(C)n2nc(C)c3c(N)ncnc32)cc(Cl)c(F)c1C1CN(CC(F)F)C1 (racemic) [Example 147, 1-(1-{5-Chloro-3-[1-(2,2-difluoroethyl)azetidin-3-yl]-2-ethoxy-4-fluorophenyl}ethyl)-3-methyl-1H-pyrazolo[3,4-d]pyrimidin-4-amine] | > 8.00
CCOc1c(C(C)n2nc(C)c3c(N)ncnc32)cc(Cl)c(C#N)c1-c1ccc(-c2nnc(C)o2)nc1 (racemic) [Example 338, 4-[1-(4-amino-3-methyl-1H-pyrazolo[3,4-d]pyrimidin-1-yl)ethyl]-6-chloro-3-ethoxy-2-[6-(5-methyl-1,3,4-oxadiazol-2-yl)pyridin-3-yl]benzonitrile] | > 8.00
